Laboratory results reported in PMC10449848, “Structural basis of lipid-droplet localization of 17-beta-hydroxysteroid dehydrogenase 13” (Nature Communications, 2023).
Substitutions are numbered along the chain they refer to. Where “and” joins values, the source holds several entries; their conditions need not be identical. Identical values can stand only once.

Experiments:
[1] = target: T1, human HSD17B13 (Homo sapiens, UniProt Q7Z5P4); assay: Cell assay: HEK cells stably expressing wild-type human HSD17B13, estrone production by LCMS; type: cell-based
T1 construct: expressed in transfected cells
T1 sequence (Q7Z5P4 20-300): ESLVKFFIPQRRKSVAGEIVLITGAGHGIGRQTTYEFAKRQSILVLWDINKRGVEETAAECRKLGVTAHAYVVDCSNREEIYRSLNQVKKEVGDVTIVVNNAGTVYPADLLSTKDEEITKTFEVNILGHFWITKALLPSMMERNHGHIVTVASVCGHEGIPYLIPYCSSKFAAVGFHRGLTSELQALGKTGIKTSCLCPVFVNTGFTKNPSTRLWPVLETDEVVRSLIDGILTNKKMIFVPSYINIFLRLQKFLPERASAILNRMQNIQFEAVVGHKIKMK
Protocol: Cell inhibition potency of test compounds was determined using a whole-cell HEK overexpressing HSD17B13, utilizing a liquid chromatography/mass spectrometry (LCMS) readout.
In this assay HSD17B13 uses NAD^+ as a cofactor during metabolism of β-estradiol, converting NAD^+ to NADH and β-estradiol to estrone. Estrone production is quantified by LCMS using a Sciex API-5500-Electrospray system (AB Sciex LLC, MA, USA), and used as a measure of HSD17B13 enzyme activity.
The amount of product (estrone) was then quantified by LCMS using software provided (Analyst 1.7, Hotfix 3, MultiQuant 3.0.31721.0). Data expressed as product area ratio (PAR) were then normalized to control wells using Activity Base (IDBS). Zero percent effect (ZPE) was defined as PAR generated from uninhibited HSD17B13 (vehicle control).

[2] = target: T2, dog WT HSD17B13 (Canis lupus familiaris, UniProt A0A8C0PP93); assay: Thermal shift assay (static light scattering, Tagg), dog WT HSD17B13; type: binding; conditions: Fig. 6d; 500 μM NAD+
T2 construct: HSD17B13 (AA1-300, XP_038300006.1); made in house; host or cells: Sf9 (baculovirus)
T2 sequence (A0A8C0PP93 1-300): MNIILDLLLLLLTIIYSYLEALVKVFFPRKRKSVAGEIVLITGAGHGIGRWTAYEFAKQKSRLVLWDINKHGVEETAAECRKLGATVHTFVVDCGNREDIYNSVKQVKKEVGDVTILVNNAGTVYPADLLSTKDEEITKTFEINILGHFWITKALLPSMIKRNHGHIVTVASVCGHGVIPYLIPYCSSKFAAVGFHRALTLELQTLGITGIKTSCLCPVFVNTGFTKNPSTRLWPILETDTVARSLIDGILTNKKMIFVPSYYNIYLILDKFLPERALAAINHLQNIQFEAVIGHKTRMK
Description: (§1) To understand ligand binding, we tested several approaches such as surface plasmon resonance and isothermal calorimetry. […] We next turned to thermal shift assays (TSA) for comparing ligand binding affinities. TSA measures the changes in the thermal denaturation temperature of a protein under different conditions such as the presence compound, changes in buffer conditions, or sequence mutations. There are various readouts including intrinsic fluorescence or light scattering signals. We chose the static light scattering methods to detect the temperatures at which our proteins start to aggregate (Tagg), which are more suitable for membrane proteins that require detergent micelles for stability.
(§2) TSA studies were run on the UNit instrument (Unchained Labs, CA, USA). […] The data was processed using the UNcle software (Unchained Labs, CA, USA), and temperatures at which the protein started aggregation were recorded as Tagg.

[3] = target: T3, dog mutant HSD17B13 (G177E/V178G/T205A/I293V) (Canis lupus familiaris, UniProt A0A8C0PP93, G177E/I293V/T205A/V178G); assay: Thermal shift assay (static light scattering, Tagg), dog mutant HSD17B13; type: binding; conditions: Fig. 6d, 500 μM NAD+
T3 construct: HSD17B13 (AA1-300, XP_038300006.1); made in house; host or cells: Sf9 (baculovirus)
T3 sequence (A0A8C0PP93 1-300 G177E/V178G/T205A/I293V): T2 sequence (A0A8C0PP93 1-300) with G177E, V178G, T205A, I293V
Description: as §1, §2

[4] = target: T4, human HSD17B13 (Homo sapiens, UniProt Q7Z5P4); assay: Co-factor (NAD+ / NADP) dependency biochemical assay, NAD(P)H-Glo readout, uninhibited vs inhibited reactions; conditions: 30 μM 1, 20 nM protein
T4 construct: human HSD17B13 (residues 2-300, NP_835236.2); 10x His (N); TEV protease site (N); made in house; host or cells: Sf9 (baculovirus)
T4 sequence (Q7Z5P4 2-300): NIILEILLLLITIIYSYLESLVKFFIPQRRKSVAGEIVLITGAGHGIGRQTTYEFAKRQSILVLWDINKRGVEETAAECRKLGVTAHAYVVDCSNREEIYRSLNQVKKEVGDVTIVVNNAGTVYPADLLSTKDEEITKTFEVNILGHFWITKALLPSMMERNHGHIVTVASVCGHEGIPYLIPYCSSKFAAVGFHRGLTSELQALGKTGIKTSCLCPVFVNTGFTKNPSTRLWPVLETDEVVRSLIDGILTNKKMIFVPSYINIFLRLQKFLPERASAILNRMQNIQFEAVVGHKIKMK
Protocol: Dependency of co-factor (NAD^+ and NADP^+) was determined using a purified protein HSD17B13 biochemical enzyme activity assay, using NAD(P)H-Glo luciferase readout (Promega). Substrates β-estradiol (Sigma, E8875) and Leukotriene B4 (LTB4, Cayman), 15 μM FAC in assay buffer (25 mM Tris-HCl (Sigma T2444) and 0.02% Triton X-100, pH 7.6), and 500 µM FAC co-factor (NAD^+ or NADP, Sigma, N8285) in assay buffer were added (2.5 µL/well each) to 384-well assay plates (Corning 3824) containing 2.5 μL of either 30 μM FAC inhibitor in 1% DMSO/assay buffer or vehicle (1% DMSO/assay buffer), in triplicate. The reaction was initiated by the addition of 2.5 µL/well-purified HSD17B13 protein (20 nM FAC in assay buffer). Compound, substrate, co-factor, and HSD17B13 protein were incubated in the dark at room temperature for 2 hours before the addition of 10 µL/well NAD(P)H-Glo detection reagent, prepared from luciferase detection reagent and reductase/reductase substrate, as per manufacturer’s instructions (Promega, G9061). Detection reagent was incubated in the dark for 1 hour at room temperature before plates were read on the Envision plate reader (Perkin Elmer) using a luminescent protocol. Data expressed as relative luminescent units (RLUs) were exported from the plate reader and plotted in GraphPad Prism.

[5] = target: T4, human HSD17B13; assay: HSD17B13 purified protein biochemical enzyme activity assay, NAD(P)H-Glo luciferase readout; conditions: Leukotriene B4 as substrate, NAD+ cofactor

O=C(NC[C@]1(O)CC[C@H](COc2ccccc2F)CC1)c1ccc(O)c(F)c1 [Compound 1]
activity in cell assay ([1]; HEK cells overexpressing HSD17B13): active | IC50 ([1]; HEK cells overexpressing HSD17B13, β-estradiol substrate): 570 ± 120 nM | stabilization in TSA [2]: Neither 1 nor 2 stabilized dog WT HSD17B13 significantly | binding in TSA [3]: bound compound 1 strongly | Tagg ([3]; 50 µM compound): 46.8 ± 2.2 °C | signal of inhibited reaction ([4]; LTB4 + NAD): 49880 RLU and 52640 RLU | signal of inhibited reaction ([4]; LTB4 + NADP): 49240 RLU and 47920 RLU | signal of inhibited reaction ([4]; β-estradiol + NAD): 48200 RLU and 48320 RLU | signal of inhibited reaction ([4]; β-estradiol + NADP): 47760 RLU and 49720 RLU | IC50 [5]: 250 ± 90 nM
